Results on four compounds are retold here after ChEMBL document CHEMBL1201862, “PubChem BioAssay data set” (2004).

Molecules are shown by their SMILES.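 Exposure lasted 48 hours, with cells grown in 96-well plates and compounds tested at five concentrations. Here, GI50 denotes the concentration required for 50% inhibition of growth.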 Calls of active or inactive are those of the source. Rule as the data show it: active = GI50 up to about 1.1 µM and inactive = higher.

Holding throughout (assay): NCI-60 cell line screen, 48 h
The test system of experiment [1] is A549.
Experiment [2] has as its system EKVX.
Experiment [3] deals with HCC 2998.
Experiment [4] relates to HCT-116.
Experiment [5] has as its system HOP-62.
The test system of experiment [6] is KM12.
Experiment [7] concerns MOLT-4.
Experiment [8] deals with NCI-H23.
Experiment [9] has as its system NCI-H460.
Experiment [10] deals with NCI-H522.
In experiment [11] the test system is OVCAR-4.
Experiment [12] concerns OVCAR-5.
In experiment [13] the test system is SF-268.
Experiment [14] relates to SF-295.
Experiment [15] has as its system SK-OV-3.
Experiment [16] concerns SN12C.
The test system of experiment [17] is U-251.
Experiment [18] concerns UACC-257.
For experiment [19], the system named is UACC-62.
In experiment [20] the test system is UO-31.

For the compound `CC(C)C1=CC2=CC[C@@H]3[C@](C)(CCC[C@@]3(C)C(=O)O)[C@H]2CC1` [ABIETIC ACID], the GI50 in experiment [1] was 50.6 µM (inactive); in experiment [2] it was 42.6 µM (inactive); in experiment [3], > 80 µM (inactive); in experiment [4], 45.1 µM (inactive); in experiment [5], > 67.8 µM (inactive); in experiment [6] it was 37.8 µM (inactive). The GI50 is 40.2 µM (inactive) in experiment [7]; 45.3 µM (inactive) in experiment [8]; 47 µM (inactive) in experiment [9]; 45.7 µM (inactive) in [10]; 59.6 µM (inactive) in experiment [11]; > 75.5 µM (inactive) in [12]. Besides, the GI50 in [13] is > 69 µM (inactive); in experiment [14], 37.8 µM (inactive); in experiment [15] it was > 81.7 µM (inactive); in experiment [16] it was 62.4 µM (inactive); in experiment [17] it was 50.1 µM (inactive); in experiment [18] it was 56.1 µM (inactive). In addition, the GI50 is 36.3 µM (inactive) in experiment [19] and 43.7 µM (inactive) in experiment [20].

Take `CSCSCC(CO)NC(=O)/C=C\c1c(C)[nH]c(=O)[nH]c1=O` (stereo not given): the GI50 in experiment [1] is 77.1 µM (inactive); in experiment [2], 16.1 µM (inactive); in experiment [3], 5.57 µM (inactive); in experiment [4] it was 11.4 µM (inactive); in [5], 38.8 µM (inactive); in [6], 12.7 µM (inactive). Besides, the GI50 was 7.74 µM (inactive) in experiment [7]; 17.7 µM (inactive) in [8]; 12.2 µM (inactive) in experiment [9]; 0.959 µM (active) in experiment [10]; 1.23 µM (inactive) in experiment [11]; 57.3 µM (inactive) in experiment [12]. The GI50 in [13] was 7.64 µM (inactive); in experiment [14], 76.6 µM (inactive); in experiment [15], 11.1 µM (inactive); in experiment [16], 8.15 µM (inactive); in [17], 7.57 µM (inactive); in [18], 48.6 µM (inactive). Moreover, the GI50 in experiment [19] is 22.4 µM (inactive); in experiment [20] it was 14.9 µM (inactive).

In the case of `NC(=O)C(=O)N/N=C1/c2ccccc2CC1C1(O)C(=O)Nc2c(Cl)cc(Cl)cc21` (stereo not given), the GI50 in experiment [1] is 69.7 µM (inactive); in experiment [2] it was > 100 µM (inactive); in [3], > 100 µM (inactive); in [4] it was > 100 µM (inactive); in [5] it was > 100 µM (inactive); in experiment [6], > 100 µM (inactive). Further, the GI50 was > 100 µM (inactive) in experiment [7]; > 100 µM (inactive) in experiment [8]; > 100 µM (inactive) in experiment [9]; 61.4 µM (inactive) in experiment [10]; > 100 µM (inactive) in [11]; > 100 µM (inactive) in experiment [12]. The GI50 in experiment [13], in [14], in [15], in experiment [16], in experiment [17] and in [18] was > 100 µM (inactive) throughout. The GI50 in experiment [19] and in experiment [20] was > 100 µM (inactive) each time.

On to `CC(=O)OC1C=C(C=O)C(O)(C=O)C2(C)CCCC(C)(C)C12` (stereo not given), for which the GI50 in experiment [1] was 4.54 µM (inactive); in experiment [2], 2.65 µM (inactive); in [3], 2.61 µM (inactive); in [4], 0.989 µM (active); in [5], 6.38 µM (inactive); in experiment [6], 2.31 µM (inactive). Besides, the GI50 is 0.37 µM (active) in experiment [7]; 1.44 µM (inactive) in experiment [8]; 1.64 µM (inactive) in experiment [9]; 0.456 µM (active) in [10]; 1.33 µM (inactive) in experiment [11]; 4.55 µM (inactive) in [12]. For the same compound, the GI50 in experiment [13] is 2.42 µM (inactive); in experiment [14], 3.07 µM (inactive); in experiment [15], 4.34 µM (inactive); in experiment [16], 2.52 µM (inactive); in experiment [17], 3.8 µM (inactive); in experiment [18], 2 µM (inactive). In addition, the GI50 in experiment [19] was 2.76 µM (inactive); in experiment [20], 2.32 µM (inactive).
